How the values were obtained:
VERPE [1] = assay: Pre-emergence action against VERPE, 1280 g/ha; assay type: in vivo, Veronica persica; settings: scored visually after about 3 weeks vs untreated controls (100% = plants have died)
In short: (§1)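 Soil-surface application after sowing, before emergence: WP or EC formulations in water with 0.5% additive, 600 litres per hectare, onto sandy loam pots. Damage rated visually in % relative to untreated plants after roughly 3 weeks in a greenhouse.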

DIGSA [2] = assay: Pre-emergence action against DIGSA, 1280 g/ha; assay type: in vivo, Digitaria sanguinalis; settings: visual scoring after about 3 weeks vs untreated controls, 100% = plants have died, 0% = like control plants
In short: as §1

MATIN [3] = assay: Pre-emergence action against MATIN, 1280 g/ha; assay type: in vivo, Tripleurospermum inodorum (Matricaria inodora); settings: scored visually after about 3 weeks vs untreated controls (100% = plants have died)
In short: as §1

LOLRI [4] = assay: Pre-emergence action against LOLRI, 1280 g/ha; assay type: in vivo, Lolium rigidum; settings: visual scoring after about 3 weeks vs untreated controls, 100% = plants have died, 0% = like control plants
In short: as §1

SETVI [5] = assay: Pre-emergence action against SETVI, 1280 g/ha; assay type: in vivo, Setaria viridis; settings: visual scoring after about 3 weeks vs untreated controls, 100% = plants have died, 0% = like control plants
In short: as §1

STEME [6] = assay: Pre-emergence action against STEME, 1280 g/ha; assay type: in vivo, Stellaria media; settings: scored visually after about 3 weeks vs untreated controls (100% = plants have died)
In short: as §1

VERPE [7] = assay: Post-emergence action against VERPE, 1.28 kg/ha; assay type: in vivo, Veronica persica; settings: dosage 1280 g/ha, visual rating about 3 weeks after treatment vs untreated controls (100% = plants died)
In short: (§2)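 Visual rating against untreated plants about 3 weeks after spraying gives % activity, where 0% means like controls and 100% means plants died. Plants were treated post-emergence at the one-leaf stage with compound formulated as wettable powder or emulsion concentrate, applied at 600 L water/ha plus 0.5% additive.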

POAAN [8] = assay: Pre-emergence action against POAAN, 1280 g/ha; assay type: in vivo, Poa annua; settings: visual scoring after about 3 weeks vs untreated controls, 100% = plants have died, 0% = like control plants
In short: as §1

AMARE [9] = assay: Pre-emergence action against AMARE, 1280 g/ha; assay type: in vivo, Amaranthus retroflexus; settings: scored visually after about 3 weeks vs untreated controls (100% = plants have died)
In short: as §1

KCHSC = assay: Pre-emergence action against KCHSC, 1280 g/ha; assay type: in vivo, Bassia scoparia; settings: scored visually after about 3 weeks vs untreated controls (100% = plants have died)
Source text: 1. Pre-Emergence Herbicidal Effect and Crop Plant Compatibility a) Seeds of mono- and dicotyledonous weed plants are placed in plastic pots in sandy loam soil (doubly sown with one species each of mono- or dicotyledonous weed plants per pot) and covered with soil. The compounds of the invention, formulated in the form of wettable powders (WP) or as emulsion concentrates (EC), are then applied onto the surface of the covering soil as aqueous suspension or emulsion with addition of 0.5% additive at a water application rate equivalent to 600 litres per hectare. After the treatment, the pots are placed in a greenhouse and kept under good growth conditions for the trial plants. After about 3 weeks, the effect of the preparations is scored visually in comparison with untreated controls as percentages. For example, 100% activity=the plants have died, 0% activity=like control plants. 1. Pre-Emergence Effectiveness Tables 1 to 12 below show the effects of selected compounds of the general formula (I) according to Tables 1 and 2 on various harmful plants and at an application rate corresponding to 1280 g/ha, which were obtained by the experimental procedure mentioned above.

ALOMY [10] = assay: Pre-emergence action against ALOMY, 1280 g/ha; assay type: in vivo, Alopecurus myosuroides; settings: visual scoring after about 3 weeks vs untreated controls, 100% = plants have died, 0% = like control plants
In short: as §1

ABUTH = assay: Post-emergence action against ABUTH, 1.28 kg/ha; assay type: in vivo, Abutilon theophrasti; settings: dosage 1280 g/ha, visual rating about 3 weeks after treatment vs untreated controls (100% = plants died)
In short: as §2

POAAN [11] = assay: Post-emergence action against POAAN, 1.28 kg/ha; assay type: in vivo, Poa annua; settings: dosage 1280 g/ha, visual rating about 3 weeks after treatment vs untreated controls
In short: as §2

DIGSA [12] = assay: Post-emergence action against DIGSA, 1.28 kg/ha; assay type: in vivo, Digitaria sanguinalis; settings: dosage 1280 g/ha, visual rating about 3 weeks after treatment vs untreated controls
In short: as §2

ECHCG [13] = assay: Pre-emergence action against ECHCG, 1280 g/ha; assay type: in vivo, Echinochloa crus-galli; settings: visual scoring after about 3 weeks vs untreated controls, 100% = plants have died, 0% = like control plants
In short: as §1

MATIN [14] = assay: Post-emergence action against MATIN, 1.28 kg/ha; assay type: in vivo, Tripleurospermum inodorum (Matricaria inodora); settings: dosage 1280 g/ha, visual rating about 3 weeks after treatment vs untreated controls (100% = plants died)
In short: as §2

ALOMY [15] = assay: Post-emergence action against ALOMY, 1.28 kg/ha; assay type: in vivo, Alopecurus myosuroides; settings: dosage 1280 g/ha, visual rating about 3 weeks after treatment vs untreated controls
In short: as §2

LOLRI [16] = assay: Post-emergence action against LOLRI, 1.28 kg/ha; assay type: in vivo, Lolium rigidum; settings: dosage 1280 g/ha, visual rating about 3 weeks after treatment vs untreated controls
In short: as §2

AMARE [17] = assay: Post-emergence action against AMARE, 1.28 kg/ha; assay type: in vivo, Amaranthus retroflexus; settings: dosage 1280 g/ha, visual rating about 3 weeks after treatment vs untreated controls (100% = plants died)
In short: as §2

STEME [18] = assay: Post-emergence action against STEME, 1.28 kg/ha; assay type: in vivo, Stellaria media; settings: dosage 1280 g/ha, visual rating about 3 weeks after treatment vs untreated controls (100% = plants died)
In short: as §2

ECHCG [19] = assay: Post-emergence action against ECHCG, 1.28 kg/ha; assay type: in vivo, Echinochloa crus-galli; settings: dosage 1280 g/ha, visual rating about 3 weeks after treatment vs untreated controls
In short: as §2

VERPE [20] = assay: Pre-emergence action at 320 g/ha against VERPE; assay type: in vivo, Veronica persica; settings: visual scoring after about 3 weeks vs untreated controls
In short: (§3)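 Application: aqueous WP or EC with 0.5% additive on soil covering seeds, 600 l/ha. Read-out: visual percent damage after ~3 weeks in greenhouse, untreated pots as reference.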

DIGSA [21] = assay: Pre-emergence action at 320 g/ha against DIGSA; assay type: in vivo, Digitaria sanguinalis; settings: visual scoring after about 3 weeks vs untreated controls
Source text: b) Seeds of monocotyledonous and dicotyledonous weed plants and crop plants are placed in plastic or organic planting pots and covered with soil. The compounds of the invention, formulated in the form of wettable powders (WP) or as emulsion concentrates (EC), are then applied onto the surface of the covering soil as aqueous suspension or emulsion with addition of 0.5% additive at a water application rate of 600 l/ha (converted). After the treatment, the pots are placed in a greenhouse and kept under good growth conditions for the trial plants. After about 3 weeks, the effect of the preparations is scored visually in comparison with untreated controls as percentages. For example, 100% activity=the plants have died, 0% activity=like control plants. Tables 13 to 26 below show the effects of selected compounds of the general formula (I) on various harmful plants and at an application rate corresponding to 320 g/ha, which were obtained by the experimental procedure mentioned above.

ALOMY [22] = assay: Pre-emergence action at 320 g/ha against ALOMY; assay type: in vivo, Alopecurus myosuroides; settings: scored visually after about 3 weeks vs untreated controls (100% = plants have died)
In short: as §3

AMARE [23] = assay: Pre-emergence action at 320 g/ha against AMARE; assay type: in vivo, Amaranthus retroflexus; settings: visual scoring after about 3 weeks vs untreated controls
In short: as §3

ALOMY [24] = assay: Post-emergence action against ALOMY, 320 g/ha; assay type: in vivo, Alopecurus myosuroides; settings: dosage 320 g/ha, visual rating about 3 weeks after treatment vs untreated controls (100% = plants died)
Source text: Accordingly, the compounds of the invention have good herbicidal action against a broad spectrum of weed grasses and broad-leaved weeds and are therefore suitable for controlling unwanted vegetation by the post-emergence method. • b) Seeds of monocotyledonous and dicotyledonous weeds and crop plants are placed in sandy loam in plastic or organic planting pots, covered with soil and cultivated in a greenhouse under controlled growth conditions. 2 to 3 weeks after sowing, the test plants are treated at the one-leaf stage. The compounds of the invention, formulated in the form of wettable powders (WP) or as emulsion concentrates (EC), are then sprayed onto the green parts of the plants as aqueous suspension or emulsion with addition of 0.5% additive at a water application rate of 600 l/ha (converted). After the test plants have been kept in the greenhouse under optimum growth conditions for about 3 weeks, the activity of the preparations is rated visually in comparison to untreated controls. For example, 100% activity=the plants have died, 0% activity=like control plants. Tables 39 to 49 below show the effects of selected compounds of the general formula (I) according to Tables 1 and 2 on various harmful plants and at an application rate corresponding to 320 g/ha, which were obtained by the experimental procedure mentioned above.

SETVI [25] = assay: Pre-emergence action at 320 g/ha against SETVI; assay type: in vivo, Setaria viridis; settings: visual scoring after about 3 weeks vs untreated controls
In short: as §3

MATIN [26] = assay: Pre-emergence action at 320 g/ha against MATIN; assay type: in vivo, Tripleurospermum inodorum (Matricaria inodora); settings: visual scoring after about 3 weeks vs untreated controls
In short: as §3

POLCO = assay: Pre-emergence action at 320 g/ha against POLCO; assay type: in vivo, Fallopia convolvulus (Polygonum convolvulus); settings: visual scoring after about 3 weeks vs untreated controls
In short: as §3

VIOTR = assay: Pre-emergence action at 320 g/ha against VIOTR; assay type: in vivo, Viola tricolor; settings: dosage 320 g/ha
In short: as §3

SMILES	Pre-emergence action against VERPE (VERPE [1]) [%]	Pre-emergence action against DIGSA (DIGSA [2]) [%]	Pre-emergence action against MATIN (MATIN [3]) [%]	Pre-emergence action against LOLRI (LOLRI [4]) [%]	Pre-emergence action against SETVI (SETVI [5]) [%]	Pre-emergence action against STEME (STEME [6]) [%]	Post-emergence action against VERPE (VERPE [7]) [%]	Pre-emergence action against POAAN (POAAN [8]) [%]	Pre-emergence action against AMARE (AMARE [9]) [%]	Pre-emergence action against KCHSC (KCHSC) [%]	Pre-emergence action against ALOMY (ALOMY [10]) [%]	Post-emergence action against ABUTH (ABUTH) [%]	Post-emergence action against POAAN (POAAN [11]) [%]	Post-emergence action against DIGSA (DIGSA [12]) [%]	Pre-emergence action against ECHCG (ECHCG [13]) [%]	Post-emergence action against MATIN (MATIN [14]) [%]	Post-emergence action against ALOMY (ALOMY [15]) [%]	Post-emergence action against STEME (STEME [18]) [%]	Post-emergence action against ECHCG (ECHCG [19]) [%]	also measured
C[C@@H](Oc1nn(-c2ccccc2F)c(-c2cnccn2)c1Br)C(=O)O [Example I-002]	100	100	100	90	100	100	90	100	100	100	90	–	–	–	–	–	–	–	–	–
O=C(O)C1CCN(C(=O)COc2nn(-c3ccccc3F)c(-c3cncc(F)c3)c2Br)C1 (stereo not shown) [Example X-040]	90	90	90	90	90	90	100	90	90	90	–	90	100	90	90	100	100	–	–	–
O=C(COc1nn(-c2ccccc2F)c(-c2ccc(F)cn2)c1Br)NO [II-017]	–	100	90	–	100	90	90	100	100	100	–	–	100	–	–	90	100	–	–	–
CCOC(=O)COc1nn(-c2ccccc2C)c(-c2ccc(F)nc2)c1I [VII-058]	100	100	100	100	100	100	90	100	100	90	90	90	100	100	100	90	100	90	100	Post-emergence action against LOLRI (LOLRI [16]): 100%; Post-emergence action against AMARE (AMARE [17]): 100%
CCOC(=O)COc1nn(-c2ccccc2C)c(-c2ccc(F)nc2)c1C(F)(F)F [VII-105]	100	100	90	100	100	100	90	100	100	–	100	–	100	100	100	100	100	100	100	Pre-emergence action against VERPE in % (VERPE [20]): 90%; Pre-emergence action against DIGSA in % (DIGSA [21]): 100%; Pre-emergence action at 320 g/ha against ALOMY in % (ALOMY [22]): 90%; Pre-emergence action against AMARE in % (AMARE [23]): 90%; Post-emergence action against ALOMY (ALOMY [24]): 90%; Pre-emergence action against SETVI in % (SETVI [25]): 80%; Pre-emergence action against MATIN in % (MATIN [26]): 100%; Pre-emergence action against POLCO in % (POLCO): 90%; Pre-emergence action against VIOTR in % (VIOTR): 90%

— patent US12180187B2, “1-phenyl-5-azinylpyrazolyl-3-oxyalkyl acids and their use for controlling unwanted plant growth” (BAYER AKTIENGESELLSCHAFT, priority 2019, dated 2024)
